Measured values from PubChem BioAssay (NCI).
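At the GI50, growth is halved. Definition used: TGI = concentration required for complete inhibition of growth.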

Experiments:
Assay in all cases: NCI tumour cell line growth inhibition, 384-well format
786-0 renal = system: 786-0 renal
A498 renal = system: A498 renal
A549 NSCLC = system: A549 NSCLC
ACHN renal = system: ACHN renal
BT-549 breast = system: BT-549 breast
CAKI-1 renal = system: CAKI-1 renal
CCRF-CEM leukemia = system: CCRF-CEM leukemia
COLO 205 colon = system: COLO 205 colon
DU-145 prostate = system: DU-145 prostate
EKVX NSCLC = system: EKVX NSCLC
HCC-2998 colon = system: HCC-2998 colon
HCT-116 colon = system: HCT-116 colon
HCT-15 colon = system: HCT-15 colon
HL-60(TB) leukemia = system: HL-60(TB) leukemia
HOP-62 NSCLC = system: HOP-62 NSCLC
HOP-92 NSCLC = system: HOP-92 NSCLC
HS 578T breast = system: HS 578T breast
IGROV1 ovarian = system: IGROV1 ovarian
K-562 leukemia = system: K-562 leukemia
KM12 colon = system: KM12 colon
LOX IMVI melanoma = system: LOX IMVI melanoma
M14 melanoma = system: M14 melanoma
MALME-3M melanoma = system: MALME-3M melanoma
MCF7 breast = system: MCF7 breast
MDA-MB-231 breast = system: MDA-MB-231 breast
MDA-MB-435 melanoma = system: MDA-MB-435 melanoma
MDA-MB-468 breast = system: MDA-MB-468 breast
MOLT-4 leukemia = system: MOLT-4 leukemia
NCI-H226 lung = system: NCI-H226 lung
NCI-H23 lung = system: NCI-H23 lung
NCI-H322M lung = system: NCI-H322M lung
NCI-H460 NSCLC = system: NCI-H460 NSCLC
NCI-H522 lung = system: NCI-H522 lung
NCI/ADR-RES ovarian = system: NCI/ADR-RES ovarian
OVCAR-3 ovarian = system: OVCAR-3 ovarian
OVCAR-4 ovarian = system: OVCAR-4 ovarian
OVCAR-5 ovarian = system: OVCAR-5 ovarian
OVCAR-8 ovarian = system: OVCAR-8 ovarian
PC-3 prostate = system: PC-3 prostate
RPMI-8226 leukemia = system: RPMI-8226 leukemia
RXF 393 renal = system: RXF 393 renal
SF-268 CNS = system: SF-268 CNS
SF-295 CNS = system: SF-295 CNS
SF-539 CNS = system: SF-539 CNS
SK-MEL-2 melanoma = system: SK-MEL-2 melanoma
SK-MEL-28 melanoma = system: SK-MEL-28 melanoma
SK-MEL-5 melanoma = system: SK-MEL-5 melanoma
SK-OV-3 ovarian = system: SK-OV-3 ovarian
SN12C renal = system: SN12C renal
SNB-19 CNS = system: SNB-19 CNS
SNB-75 CNS = system: SNB-75 CNS
SR leukemia = system: SR leukemia
SW-620 colon = system: SW-620 colon
T-47D breast = system: T-47D breast
TK-10 renal = system: TK-10 renal
U251 glioblastoma = system: U251 glioblastoma
UACC-257 melanoma = system: UACC-257 melanoma
UACC-62 melanoma = system: UACC-62 melanoma
UO-31 renal = system: UO-31 renal

CCN1CCN(Cc2ccc(Nc3ncc(F)c(-c4cc(F)c5nc(C)n(C(C)C)c5c4)n3)nc2)CC1 was tested, and the GI50 ([…]-0 renal) was 1.27 µM, the TGI (786-0 renal) was 7.97 µM and the GI50 (A498 renal) was 0.312 µM. It also gave a TGI (A498 renal) of 1.47 µM, a GI50 (A549 NSCLC) of 2.12 µM and a TGI (A549 NSCLC) of 7.52 µM. The GI50 (ACHN renal) was 0.39 µM, the TGI (ACHN renal) was 10.6 µM and the GI50 (BT-549 breast) was 0.917 µM. For the same compound, the TGI (BT-549 breast) was 16.5 µM, the GI50 (CAKI-1 renal) was 0.285 µM and the TGI (CAKI-1 renal) was 14 µM. The GI50 (CCRF-CEM leukemia) was 0.33 µM, the TGI (CCRF-CEM leukemia) was 4.39 µM and the GI50 (COLO 205 colon) was 0.447 µM. For the same compound, the TGI (COLO 205 colon) was greater than 55.9 µM, the GI50 (DU-145 prostate) was 1.84 µM and the TGI (DU-145 prostate) was 9.15 µM. The GI50 (EKVX NSCLC) was 18 µM, the TGI (EKVX NSCLC) was greater than 62 µM and the GI50 (HCC-2998 colon) was 4.45 µM. The GI50 (HCT-116 colon) was 0.392 µM, the TGI (HCT-116 colon) was 1.87 µM and the GI50 (HCT-15 colon) was 0.531 µM. The TGI (HCT-15 colon) was 7.24 µM, the GI50 (HL-60(TB) leukemia) was 0.386 µM and the TGI (HL-60(TB) leukemia) was 6.82 µM. For the same compound, the GI50 (HOP-62 NSCLC) was 8.44 µM, the TGI (HOP-62 NSCLC) was greater than 56.8 µM and the GI50 (HOP-92 NSCLC) was greater than 81.8 µM. For the same compound, the TGI (HOP-92 NSCLC) was greater than 100 µM, the GI50 (HS 578T breast) was 2.43 µM and the TGI (HS 578T breast) was 19.4 µM. The GI50 (IGROV1 ovarian) was 4.43 µM, the TGI (IGROV1 ovarian) was greater than 28.1 µM and the GI50 (K-562 leukemia) was 1.11 µM. For the same compound, the TGI (K-562 leukemia) was 2.32 µM, the GI50 (KM12 colon) was 0.485 µM and the TGI (KM12 colon) was 6.5 µM. It also gave a GI50 (LOX IMVI melanoma) of 0.372 µM, a TGI (LOX IMVI melanoma) of 7.23 µM and a GI50 (M14 melanoma) of 0.684 µM. The TGI (M14 melanoma) was greater than 28 µM, the GI50 (MALME-3M melanoma) was 3.43 µM and the TGI (MALME-3M melanoma) was 13.6 µM. The GI50 (MCF7 breast) was 0.395 µM, the TGI (MCF7 breast) was 6.59 µM and the GI50 (MDA-MB-231 breast) was 0.749 µM. For the same compound, the GI50 (MDA-MB-435 melanoma) was greater than 15.5 µM, the TGI (MDA-MB-435 melanoma) was greater than 52.4 µM and the GI50 (MDA-MB-468 breast) was 1.18 µM. For the same compound, the TGI (MDA-MB-468 breast) was greater than 25.7 µM, the GI50 (MOLT-4 leukemia) was 0.127 µM and the TGI (MOLT-4 leukemia) was 0.981 µM. It also gave a GI50 (NCI-H226 lung) of 0.56 µM, a TGI (NCI-H226 lung) of 23 µM and a GI50 (NCI-H23 lung) of 1.74 µM. For the same compound, the TGI (NCI-H23 lung) was 7.68 µM, the GI50 (NCI-H322M lung) was 1.16 µM and the TGI (NCI-H322M lung) was 15.2 µM. For the same compound, the GI50 (NCI-H460 NSCLC) was 0.387 µM, the TGI (NCI-H460 NSCLC) was 1.82 µM and the GI50 (NCI-H522 lung) was 9.54 µM. For the same compound, the TGI (NCI-H522 lung) was greater than 33.1 µM, the GI50 (NCI/ADR-RES ovarian) was greater than 60.9 µM and the TGI (NCI/ADR-RES ovarian) was greater than 100 µM. It also gave a GI50 (OVCAR-3 ovarian) of 4.21 µM, a TGI (OVCAR-3 ovarian) greater than 29.3 µM and a TGI (OVCAR-4 ovarian) greater than 19.6 µM. For the same compound, the GI50 (OVCAR-5 ovarian) was 0.944 µM, the TGI (OVCAR-5 ovarian) was greater than 68.3 µM and the GI50 (OVCAR-8 ovarian) was 24.3 µM. It also gave a TGI (OVCAR-8 ovarian) greater than 32.4 µM, a GI50 (PC-3 prostate) of 1.49 µM and a TGI (PC-3 prostate) greater than 31.9 µM. It also gave a GI50 (RPMI-8226 leukemia) of 1.42 µM, a TGI (RPMI-8226 leukemia) of 8.38 µM and a GI50 (RXF 393 renal) of 5.84 µM. It also gave a TGI (RXF 393 renal) of 11.6 µM, a GI50 (SF-268 CNS) of 2 µM and a TGI (SF-268 CNS) of 19 µM. For the same compound, the GI50 (SF-295 CNS) was 6.95 µM, the TGI (SF-295 CNS) was greater than 34.2 µM and the GI50 (SF-539 CNS) was 1.26 µM. It also gave a TGI (SF-539 CNS) of 2.53 µM, a GI50 (SK-MEL-2 melanoma) of 16.8 µM and a TGI (SK-MEL-2 melanoma) of 30.5 µM. For the same compound, the GI50 (SK-MEL-28 melanoma) was 1.85 µM, the TGI (SK-MEL-28 melanoma) was greater than 33.3 µM and the GI50 (SK-MEL-5 melanoma) was 0.26 µM. The TGI (SK-MEL-5 melanoma) was greater than 23.3 µM, the GI50 (SK-OV-3 ovarian) was 3.31 µM and the TGI (SK-OV-3 ovarian) was greater than 32 µM. It also gave a GI50 (SN12C renal) of 6.7 µM, a TGI (SN12C renal) greater than 32.9 µM and a GI50 (SNB-19 CNS) of 16 µM. It also gave a TGI (SNB-19 CNS) greater than 33.6 µM, a GI50 (SNB-75 CNS) of 0.708 µM and a TGI (SNB-75 CNS) of 10.6 µM. The GI50 (SR leukemia) was 0.0577 µM, the TGI (SR leukemia) was 0.267 µM and the GI50 (SW-620 colon) was 0.366 µM. It also gave a TGI (SW-620 colon) of 1.81 µM, a GI50 (T-47D breast) of 23.7 µM and a TGI (T-47D breast) greater than 68.5 µM. It also gave a GI50 (TK-10 renal) of 0.803 µM, a TGI (TK-10 renal) greater than 27.6 µM and a GI50 (U251 glioblastoma) of 2.87 µM. It also gave a TGI (U251 glioblastoma) greater than 29.6 µM, a GI50 (UACC-257 melanoma) of 4.74 µM and a TGI (UACC-257 melanoma) greater than 32.1 µM. It also gave a GI50 (UACC-62 melanoma) of 2.4 µM, a TGI (UACC-62 melanoma) greater than 26.9 µM and a GI50 (UO-31 renal) of 0.362 µM. The TGI (UO-31 renal) was greater than 19.1 µM.

In the case of CCCCCOC(=O)Nc1nc(=O)n(C2OC(C)C(O)C2O)cc1F (configuration not stated), the GI50 (RPMI-8226 leukemia) is reported as greater than 46.9 µM and the TGI (RPMI-8226 leukemia) is reported as 99.8 µM.
